Test results published in patent US9783537B2, “3-(4-ethylnylphenyl) pyridopyrimidinone compounds and process for preparation thereof useful as potential anticancer agents” (Council of Scientific & Industrial Research, priority 2013, dated 2017).
Like-named read-outs stand apart in the source and are kept apart here.

What was measured:
DU-145 = assay: SRB 48 h growth assay, Prostate DU-145; format: cell-based, human; details: DU-145, Prostate
HCT-15 = assay: SRB 48 h growth assay, Colon HCT-15; format: cell-based, human; details: HCT-15, Colon
OVCAR-4 = assay: SRB 48 h growth assay, Ovarian OVCAR-4; format: cell-based, human; details: OVCAR-4, Ovarian
A498 = assay: SRB 48 h growth assay, Renal A498; format: cell-based, human
M14 = assay: SRB 48 h growth assay, Melanoma M14; format: cell-based, human
A549/ATCC = assay: SRB 48 h growth assay, Non-small Cell Lung A549/ATCC; format: cell-based, human
NCI-H226 = assay: SRB 48 h growth assay, Non-small Cell Lung NCI-H226; format: cell-based, human; details: for GI50: Homo sapiens
RPMI-8226 = assay: SRB 48 h growth assay, Leukemia RPMI-8226; format: cell-based, human; details: RPMI-8226, Leukemia
HL-60(TB) = assay: SRB 48 h growth assay, Leukemia HL-60(TB); format: cell-based, human
K-562 = assay: SRB 48 h growth assay, Leukemia K-562; format: cell-based, human
SW-620 = assay: SRB 48 h growth assay, Colon SW-620; format: cell-based, human; details: SW-620, Colon
UACC-62 = assay: SRB 48 h growth assay, Melanoma UACC-62; format: cell-based, human; details: UACC-62, Melanoma
RXF393 = assay: SRB 48 h growth assay, Renal RXF393; format: cell-based, human
OVCAR-8 = assay: SRB 48 h growth assay, Ovarian OVCAR-8; format: cell-based, human; details: OVCAR-8, Ovarian
[1] = test system: two prostate cancer cell line (PC-3, DU-145); assay: in vitro anticancer activity, prostate panel; format: cell-based; details: Homo sapiens; two prostate cancer cell lines, exposure at least 48 h; read-out: GI50, range over panel
SF-268 = assay: SRB 48 h growth assay, CNS SF-268; format: cell-based, human; details: SF-268, CNS
SNB-19 = assay: SRB 48 h growth assay, CNS SNB-19; format: cell-based, human; details: SNB-19, CNS
MDA-MB-468 = assay: SRB 48 h growth assay, Breast MDA-MB-468; format: cell-based, human; details: MDA-MB-468, Breast
MALME-3M = assay: SRB 48 h growth assay, Melanoma MALME-3M; format: cell-based, human
IGROV1 = assay: SRB 48 h growth assay, Ovarian IGROV1; format: cell-based, human
SF-539 = assay: SRB 48 h growth assay, CNS SF-539; format: cell-based, human; details: SF-539, CNS
[2] = test system: six CNS cancer cell line (SF-268, SF-295, SF-539, SNB-19, SNB-75 and U251); assay: in vitro anticancer activity, CNS panel; format: cell-based; details: Homo sapiens; six CNS cancer cell lines, exposure at least 48 h; read-out: GI50, range over panel
SNB-75 = assay: SRB 48 h growth assay, CNS SNB-75; format: cell-based, human; details: SNB-75, CNS
UO-31 = assay: SRB 48 h growth assay, Renal UO-31; format: cell-based, human; details: UO-31, Renal
MDA-MB-231/ATCC = assay: SRB 48 h growth assay, Breast MDA-MB-231/ATCC; format: cell-based, human
T-47D = assay: SRB 48 h growth assay, Breast T-47D; format: cell-based, human
[3] = Homo sapiens, read-out: Growth Inhibition GI50
[4] = Homo sapiens, read-out: Log10 GI50 (converted)
[5] = Homo sapiens, read-out: Log10 LC50 (converted)

## C#Cc1ccc(-n2c(/C=C/c3cc(OC)c(OC)c(OC)c3)nc3ncccc3c2=O)cc1 [4q, (E)-3-(4-Ethynylphenyl)-2-(3,4,5-trimethoxystyryl)pyrido[2,3-d]pyrimidin-4(3H)-one]
DU-145
  Log10 TGI50: >−4.00
DU-145; [3]
  GI50: 5.36 µM
DU-145; [4]
  GI50: 5.37 µM
DU-145; [5]
  CC50: > 100 µM
HCT-15
  Log10 TGI50: >−4.00
HCT-15; [3]
  GI50: 5.58 µM
HCT-15; [4]
  GI50: 5.62 µM
HCT-15; [5]
  CC50: > 100 µM
OVCAR-4; [3]
  GI50: 12 µM
OVCAR-4; [4]
  GI50: 12 µM
OVCAR-4; [5]
  CC50: > 100 µM
OVCAR-4
  Log10 TGI50: −4.04
A498
  Log10 TGI50: −5.01
A498; [3]
  GI50: 2630 nM
A498; [4]
  GI50: 2630 nM
A498; [5]
  CC50: > 100 µM
M14
  Log10 TGI50: ->−4.00
M14; [3]
  GI50: 4.93 µM
M14; [4]
  GI50: 4.9 µM
M14; [5]
  CC50: > 100 µM
A549/ATCC
  Log10 TGI50: >−4.00
A549/ATCC; [3]
  GI50: 5.65 µM
A549/ATCC; [4]
  GI50: 5.62 µM
A549/ATCC; [5]
  CC50: > 100 µM
NCI-H226
  Log10 TGI50: >−4.00
NCI-H226; read-out: Growth Inhibition GI50
  GI50: 12.9 µM
NCI-H226; read-out: Log10 GI50 (converted)
  GI50: 12.9 µM
RPMI-8226; [3]
  GI50: 3.6 µM
RPMI-8226; [4]
  GI50: 3.63 µM
RPMI-8226; [5]
  CC50: > 100 µM
RPMI-8226
  Log10 TGI50: >−4.00
HL-60(TB)
  Log10 TGI50: −4.59
HL-60(TB); [3]
  GI50: 3.84 µM
HL-60(TB); [4]
  GI50: 3.8 µM
HL-60(TB); [5]
  CC50: > 100 µM
K-562; Homo sapiens, K562, K-562, Leukemia, read-out: Growth Inhibition GI50
  GI50: 3.83 µM
K-562; Homo sapiens, K562, K-562, Leukemia, read-out: Log10 GI50 (converted)
  GI50: 3.8 µM
K-562; Homo sapiens, K562, K-562, Leukemia, read-out: Log10 LC50 (converted)
  CC50: > 100 µM
K-562; K-562, Leukemia
  Log10 TGI50: >−4.00
SW-620; [3]
  GI50: 3.29 µM
SW-620; [4]
  GI50: 3.31 µM
SW-620; [5]
  CC50: > 100 µM
SW-620
  Log10 TGI50: −4.30
UACC-62; [3]
  GI50: 6.9 µM
UACC-62; [4]
  GI50: 6.92 µM
UACC-62; [5]
  CC50: > 100 µM
UACC-62
  Log10 TGI50: >−4.00
RXF393
  Log10 TGI50: >−4.00
RXF393; Homo sapiens, RXF 393, read-out: Growth Inhibition GI50
  GI50: 7.04 µM
RXF393; Homo sapiens, RXF 393, read-out: Log10 GI50 (converted)
  GI50: 7.08 µM
RXF393; Homo sapiens, RXF 393, read-out: Log10 LC50 (converted)
  CC50: > 100 µM
OVCAR-8; [3]
  GI50: 9.67 µM
OVCAR-8; [4]
  GI50: 9.77 µM
OVCAR-8; [5]
  CC50: > 100 µM
OVCAR-8
  Log10 TGI50: >−4.00
[1]
  GI50: 1960 to 3760 nM
SF-268; [3]
  GI50: 5.33 µM
SF-268; [4]
  GI50: 5.37 µM
SF-268; [5]
  CC50: > 100 µM
SF-268
  Log10 TGI50: −4.01
SNB-19; [3]
  GI50: 16.2 µM
SNB-19; [4]
  GI50: 16.2 µM
SNB-19; [5]
  CC50: > 100 µM
SNB-19
  Log10 TGI50: >−4.00
MDA-MB-468; [3]
  GI50: 2830 nM
MDA-MB-468; [4]
  GI50: 2820 nM
MDA-MB-468; [5]
  CC50: > 100 µM
MDA-MB-468
  Log10 TGI50: >−4.00
MALME-3M
  Log10 TGI50: −4.15
MALME-3M; [3]
  GI50: 9.74 µM
MALME-3M; [4]
  GI50: 9.77 µM
MALME-3M; [5]
  CC50: > 100 µM
IGROV1
  Log10 TGI50: >−4.00
IGROV1; Homo sapiens, IGROV-1, read-out: Growth Inhibition GI50
  GI50: 6.08 µM
IGROV1; Homo sapiens, IGROV-1, read-out: Log10 GI50 (converted)
  GI50: 6.03 µM
IGROV1; Homo sapiens, IGROV-1, read-out: Log10 LC50 (converted)
  CC50: > 100 µM
SF-539; [3]
  GI50: 4.57 µM
SF-539; [4]
  GI50: 4.57 µM
SF-539; [5]
  CC50: > 100 µM
SF-539
  Log10 TGI50: −4.42
[2]
  GI50: 1670 to 2270 nM
SNB-75; [3]
  GI50: 3.88 µM
SNB-75; [4]
  GI50: 3.89 µM
SNB-75; [5]
  CC50: > 100 µM
SNB-75
  Log10 TGI50: >−4.00
UO-31; [3]
  GI50: 4.09 µM
UO-31; [4]
  GI50: 4.07 µM
UO-31; [5]
  CC50: > 100 µM
UO-31
  Log10 TGI50: >−4.00
MDA-MB-231/ATCC
  Log10 TGI50: >−4.00
MDA-MB-231/ATCC; [3]
  GI50: 5.53 µM
MDA-MB-231/ATCC; [4]
  GI50: 5.5 µM
MDA-MB-231/ATCC; [5]
  CC50: > 100 µM
T-47D
  Log10 TGI50: >−4.00
T-47D; Homo sapiens, T47D, read-out: Growth Inhibition GI50
  GI50: 5.85 µM
T-47D; Homo sapiens, T47D, read-out: Log10 GI50 (converted)
  GI50: 5.89 µM
T-47D; Homo sapiens, T47D, read-out: Log10 LC50 (converted)
  CC50: > 100 µM
